Laboratory results as given in the supplement of paper PMC10331698.
± gives the standard deviation of the averaged measurements.

How the values were obtained:
Assay in all cases: LOEC (log10 uM (lowest observed effect concentration))
[1] = compound: C[C@@H]1C[C@H]2[C@@H]3CCC4=CC(=O)C=C[C@]4(C)[C@@]3(F)[C@@H](O)C[C@]2(C)[C@@]1(O)C(=O)COP(=O)(O)O [Dexamethasone sodium phosphate]
Procedure: (§1)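 BioMAP Diversity Plus panel in human primary cell co-cultures, 4 concentrations in duplicate blinded samples. Responses are log10 fold change versus DMSO control, processed with tcpl v2.1.0. A hit is called when responses at any concentration exceed the cutoff (the larger of 3*bmad or log10(1.2)); the lowest observed effect concentration (modl_ga, log10 uM) is reported for hits.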

[2] = compound: CCNS(=O)(=O)C(F)(F)C(F)(F)C(F)(F)C(F)(F)C(F)(F)C(F)(F)C(F)(F)C(F)(F)F [N-Ethylperfluorooctanesulfonamide]
Procedure: as §1

[3] = compound: NS(=O)(=O)C(F)(F)C(F)(F)C(F)(F)C(F)(F)C(F)(F)C(F)(F)C(F)(F)C(F)(F)F [Perfluorooctanesulfonamide]
Procedure: as §1

[4] = compound: O=C(O)C(F)(F)OC(F)(F)C(F)(F)OC(F)(F)C(F)(F)OC(F)(F)C(F)(F)C(F)(F)C(F)(F)F [Perfluoro-3,6,9-trioxatridecanoic acid]
Procedure: as §1

[5] = compound: O=C(O)C=C(C(F)(F)F)C(F)(F)F [3,3-Bis(trifluoromethyl)-2-propenoic acid]
Procedure: as §1

[6] = compound: OCC(F)(F)OC(F)(F)C(F)(F)OC(F)(F)C(F)(F)OC(F)(F)CO [1H,1H,11H,11H-Perfluorotetraethylene glycol]
Procedure: as §1

Perfluoroundecanoic acid = compound: O=C(O)C(F)(F)C(F)(F)C(F)(F)C(F)(F)C(F)(F)C(F)(F)C(F)(F)C(F)(F)C(F)(F)C(F)(F)F [Perfluoroundecanoic acid]
Procedure: as §1

Perfluorononanoic acid = compound: O=C(O)C(F)(F)C(F)(F)C(F)(F)C(F)(F)C(F)(F)C(F)(F)C(F)(F)C(F)(F)F [Perfluorononanoic acid]
Procedure: as §1

[7] = compound: O=S(=O)(O)CCC(F)(F)C(F)(F)C(F)(F)C(F)(F)C(F)(F)C(F)(F)C(F)(F)C(F)(F)F [8:2 Fluorotelomer sulfonic acid]
Procedure: as §1

[8] = compound: O=C(O)C(F)(OC(F)(F)C(F)(F)C(F)(F)F)C(F)(F)F [Ammonium perfluoro-2-methyl-3-oxahexanoate]
Procedure: as §1

[9] = compound: O=S(=O)(O)C(F)(F)C(F)(F)C(F)(F)C(F)(F)C(F)(F)C(F)(F)C(F)(F)F [Perfluoroheptanesulfonic acid]
Procedure: as §1

[10] = compound: OCCC(F)(F)C(F)(F)C(F)(F)C(F)(F)F [4:2 Fluorotelomer alcohol]
Procedure: as §1

[11] = compound: O=S(=O)(O)C(F)(F)C(F)(F)OC(F)(F)C(F)(F)F [Perfluoro(2-ethoxyethane)sulfonic acid]
Procedure: as §1

[12] = compound: OCC(F)(F)C(F)(F)C(F)(F)C(F)(F)C(F)(F)C(F)(F)CO [1H,1H,8H,8H-Perfluorooctane-1,8-diol]
Procedure: as §1

[13] = compound: O=C(O)CCC(F)(C(F)(F)F)C(F)(F)F [4,4-bis(Trifluoromethyl)-4-fluoropropanoic acid]
Procedure: as §1

| Test System | LOEC (log10 uM) [1] | LOEC (log10 uM) [2] | LOEC (log10 uM) [3] | LOEC (log10 uM) [4] | LOEC (log10 uM) [5] | LOEC (log10 uM) (Perfluoroundecanoic acid) | LOEC (log10 uM) (Perfluorononanoic acid) | LOEC (log10 uM) [7] | also measured |
| --- | --- | --- | --- | --- | --- | --- | --- | --- | --- |
| CASM3C MCP1 down | 0.477 ± 0.68 |  |  |  |  |  |  |  |  |
| SAg Eselectin down | 0.716 ± 0.34 | 1.78 | 1.78 | 1.78 | 1.3 |  |  |  | LOEC (log10 uM) [6]: 1.78 |
| BF4T Eotaxin3 down |  | 0.845 | 1.3 | 0.845 |  | 0.301 | 1.3 | 1.54 ± 0.34 |  |
| CASM3C Thrombomodulin up |  | 1.78 | 1.78 |  |  |  |  |  | LOEC (log10 uM) [8]: 0.845 |
| IMphg MCP1 down | 0.477 | 1.78 | 1.54 ± 0.34 | 1.3 |  |  |  |  |  |
| LPS Thrombomodulin up |  | 1.78 |  | 1.78 |  |  |  | 1.54 ± 0.34 | LOEC (log10 uM) [6]: 1.04 ± 1 |
| IMphg CD40 down |  | 1.78 | 1.3 | 1.78 |  |  | 1.78 | 1.78 |  |
| IMphg IL8 down | 0.239 ± 0.34 |  |  |  |  |  |  |  |  |
| BF4T IL8 up |  |  |  |  |  |  |  |  | LOEC (log10 uM) [9]: 1.48 |
| BT xTNFa up |  |  |  |  |  |  |  |  | LOEC (log10 uM) [10]: 1.31 ± 0.66 |
| BE3C MMP1 up |  | 1.3 |  |  |  |  |  | 1.3 | LOEC (log10 uM) [8]: 1.78; LOEC (log10 uM) [9]: 1.48 |
| IMphg ESelectin up |  |  |  |  |  |  |  | 1.78 |  |
| 4H Eotaxin3 down |  | 1.54 ± 0.34 | 1.78 | 1.78 | 1.78 |  | 1.78 |  | LOEC (log10 uM) [8]: 1.04 ± 1 |
| IMphg IL10 down | 0 |  | 1.54 ± 0.34 | 1.78 | 0.845 |  | 1.78 | 1.3 | LOEC (log10 uM) [8]: 0.301; LOEC (log10 uM) [9]: 1.48; LOEC (log10 uM) [11]: 1.78; LOEC (log10 uM) [12]: 1.31 ± 0.66; LOEC (log10 uM) [6]: 1.78 |
| BT xIL2 down | 0 |  |  |  | 0.845 |  |  |  |  |
| CASM3C VCAM1 down |  | 1.54 ± 0.34 | 1.78 | 1.78 | 0.573 ± 0.39 |  |  |  | LOEC (log10 uM) [8]: 1.31 ± 0.66 |
| BE3C IL8 down | 0.239 ± 0.34 | 1.3 | 0.845 | 0.845 |  | 0.845 | 1.3 | 1.78 |  |
| BE3C HLADR down |  | 1.3 | 0.845 | 0.845 |  | 0.573 ± 0.39 | 1.31 ± 0.66 | 1.3 | LOEC (log10 uM) [6]: 1.78 |
| hDFCGF VCAM1 down |  | 0.301 | 1.07 ± 0.32 | 0.845 | 1.78 | 0.301 |  |  | LOEC (log10 uM) [6]: 1.3 |
| hDFCGF MMP1 down | 0.954 | 1.78 | 1.3 | 0.845 |  | 0.845 |  |  |  |
| BE3C IP10 down |  | 1.07 ± 0.32 | 0.845 | 0.845 |  | 0.301 | 1.3 | 1.3 | LOEC (log10 uM) [6]: 1.78 |

| Test System | LOEC (log10 uM) [1] | LOEC (log10 uM) [2] | LOEC (log10 uM) [3] | LOEC (log10 uM) [4] | LOEC (log10 uM) [5] | LOEC (log10 uM) (Perfluoroundecanoic acid) | LOEC (log10 uM) (Perfluorononanoic acid) | LOEC (log10 uM) [7] | also measured |
| --- | --- | --- | --- | --- | --- | --- | --- | --- | --- |
| KF3CT IL1a down |  | 1.78 | 1.78 | 1.3 |  | 0.845 | 0.801 ± 0.71 | 1.3 |  |
| LPS IL8 up |  |  |  |  |  |  |  |  | LOEC (log10 uM) [8]: 1.54 ± 0.34; LOEC (log10 uM) [11]: 1.54 ± 0.34 |
| 3C IL8 up |  |  |  |  |  |  |  |  | LOEC (log10 uM) [8]: 1.78 |
| SAg IL8 down |  | 1.78 | 1.78 | 1.3 | 1.78 |  | 1.78 |  | LOEC (log10 uM) [6]: 1.78 |
| BT xIL6 down | 0.716 ± 0.34 |  | 1.78 | 1.78 |  |  |  |  | LOEC (log10 uM) [6]: 1.78 |
| BE3C tPA down | 0.239 ± 0.34 | 1.3 | 1.78 | 0.845 | 0.801 ± 0.71 | 0.845 | 1.3 |  |  |
| BF4T tPA down |  | 1.3 | 1.78 | 0.845 | 1.07 ± 0.32 | 0.845 | 1.54 ± 0.34 |  | LOEC (log10 uM) [6]: 1.54 ± 0.34 |
| CASM3C IL6 down | 0.239 ± 0.34 |  |  |  | 1.07 ± 0.32 |  |  |  |  |
| LPS TNFa down | 0.954 |  | 1.78 | 1.78 |  | 0.845 |  |  |  |
| LPS PGE2 down | 1.22 ± 0.37 |  |  | 1.78 |  |  | 1.54 ± 0.34 | 1.78 |  |
| IMphg IL8 up |  | 1.78 |  |  | 1.3 |  | 1.07 ± 0.32 |  | LOEC (log10 uM) [8]: 0.573 ± 0.39 |
| BE3C MMP1 down | 0.477 ± 0.68 |  |  | 0.845 |  | 0.845 | 1.78 |  |  |
| hDFCGF Proliferation down |  | 1.3 | 1.3 | 0.845 | 1.78 | 0.301 | 1.54 ± 0.34 |  | LOEC (log10 uM) [6]: 1.04 ± 1 |
| IMphg VCAM1 down | 1.48 | 1.78 | 1.78 | 1.78 | 1.78 |  | 1.78 |  |  |
| LPS IL1a down |  |  | 1.78 | 1.78 |  | -0.427 ± 0.39 | 1.78 | 1.78 |  |
| BT PBMCCytotoxicity down | 0 |  |  |  |  |  |  |  |  |
| IMphg ESelectin down | 0 | 1.54 ± 0.34 | 0.573 ± 0.39 | 1.3 | 1.78 |  |  |  |  |
| CASM3C SAA up |  |  |  |  |  |  |  |  | LOEC (log10 uM) [13]: 1.54 ± 0.34; LOEC (log10 uM) [11]: 1.54 ± 0.34 |
| IMphg MIP1a down | 0 |  |  | 1.54 ± 0.34 |  |  |  |  |  |
| IMphg CD69 down |  | 1.78 |  | 1.31 ± 0.66 |  |  | 1.78 | 1.78 |  |
